{"source": "patent US8946225B2", "about": "“Derivatives of 2H pyridazin-3-ones, their preparation and their use as SCD-1 inhibitors” (Pierre Fabre Medicament, priority 2009, dated 2015)", "key": {"SCD-1": {"molecular_target": "T1, SCD-1 (Homo sapiens, UniProt O00767)", "T1 construct": "addition of 125 μg of microsomal fraction of HepG2 cells; host or cells: HepG2 human hepatocarcinoma cells (microsomal fraction)", "T1 sequence (O00767 1-359)": "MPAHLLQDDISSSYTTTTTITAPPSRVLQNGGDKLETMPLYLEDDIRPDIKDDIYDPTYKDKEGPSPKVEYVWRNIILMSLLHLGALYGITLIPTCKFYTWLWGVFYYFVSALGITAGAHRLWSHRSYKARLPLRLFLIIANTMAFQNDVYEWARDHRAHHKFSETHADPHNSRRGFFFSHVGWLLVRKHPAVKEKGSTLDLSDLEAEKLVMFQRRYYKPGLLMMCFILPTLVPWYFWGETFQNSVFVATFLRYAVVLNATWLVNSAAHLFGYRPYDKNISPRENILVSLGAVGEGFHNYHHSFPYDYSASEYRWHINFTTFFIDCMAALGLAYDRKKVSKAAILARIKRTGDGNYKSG", "assay": "Human enzymatic activity of SCD-1 from microsomes of HepG2 cells (conversion of [14C] stearic acid to oleic acid, HPLC)", "assay_type": "biochemical", "details": "microsomal fraction of HepG2 cells, 62 μM stearic acid, 20 minutes at 37° C., vs vehicle 0.1% DMSO; read-out: HSCD-1 (HEPG2) IC50", "procedure": "In vitro: Human enzymatic activity of SCD-1 from microsomes of HepG2 cells after treatment with the inhibitor compounds (% inhibition).\nHepG2 cells of human hepatocarcinoma (ATCC, HB-8065) are cultured at confluence then trypsinated. The cell residue is solubilized in 10 mM Tris buffer (pH 7.4) sucrose (250 mM) DTT (1 mM) then the cells are lysed by sonication. The microsomes are obtained after centrifuging at 10,000 g for 20 minutes at 4° C. followed by centifrugation of the supernatant at 100,000 g for 60 minutes at 4° C. The residue is solubilized in 10 mM Tris buffer (pH 7.4) sucrose (250 mM) at 4° C. and the microsomal proteins are assayed and stored at −196° C. (liquid nitrogen).\nThe enzymatic reaction measures the conversion of stearic acid (C18:0 fatty acid) into oleic acid (C18:1 fatty acid) by SCD-1. The enzymatic reaction is initiated by the addition of 125 μg of microsomal fraction of HepG2 cells to tubes (total reaction volume of 500 μl) containing 62 μM stearic acid (45 μM stearic acid and 17 μM [^14C] stearic acid) in 100 mM phosphate buffer (pH 7.16) with 7.2 mM ATP, 0.54 mM CoA, 6 mM MgCl2, 0.8 mM NADH and the inhibitor compound or vehicle (0.1% DMSO). The tubes are incubated for 20 minutes at 37° C. then the enzymatic reaction is halted by the addition of KOH (12%) and saponification for 30 minutes at 80° C. After acidification (3N HCl), the fatty acids are extracted twice with ethyl ether, evaporated under nitrogen before being solubilized in methanol/dichloromethane (3:1). The reaction product (C18:1) is separated from the reaction substrate (C18:0) by HPLC (Perkin Elmer, C18 reverse phase column) coupled with an in-line radioactivity detector (FlowOne). Enzymatic activity is measured in picomoles of stearic acid converted to oleic acid per minute and per mg of protein. For each inhibitor compound, an IC50 value is determined, compared with the reference enzymatic activity (vehicle 0.1% DMSO). Sterculic acid is the reference inhibitor compound (Gomez F. E., Bauman D. E., Ntambi J. M., Fox B. G. Effects of sterculic acid on stearoyl-CoA desaturase in differentiating […] adipocytes. Biochem Biophys Res Commun. 300 316-326 (2003)."}}}
{"smiles": "Cn1ncc(NCC(=O)N2CCC(Oc3cc(F)ccc3Cl)CC2)cc1=O", "note": "[Example 20, 5-{2-[4-(2-Chloro-5-fluoro-phenoxy)-piperidin-1-yl]-2-oxo-ethylamino}-2-methyl-2H-pyridazin-3-one]", "values": [{"measurement": "IC50", "setting": "SCD-1", "result": "~10", "unit": "µM"}]}
{"smiles": "Cn1nccc(NC(=O)N2CCC(Oc3ccc(F)c(C(F)(F)F)c3)CC2)c1=O", "note": "[Example 60, 4-(4-fluoro-5-trifluoromethyl-phenoxy)-piperidine-1-carboxylic acid (2-methyl-3-oxo-2,3-dihydro-pyridazin-4-yl)-amide]", "values": [{"measurement": "IC50", "setting": "SCD-1", "result": "0.1 to 1", "unit": "µM"}, {"measurement": "melting point", "result": 127, "unit": "°C"}]}
{"smiles": "O=C(CNc1ccnn(CCCC(F)(F)F)c1=O)N1CCC(Oc2cc(C(F)(F)F)ccc2Cl)CC1", "note": "[Example 45, 4-{2-[4-(2-Chloro-5-trifluoromethyl-phenoxy)-piperidin-1-yl]-2-oxo-ethylamino}-2-(4,4,4-trifluoro-butyl)-2H-pyridazin-3-one]", "values": [{"measurement": "IC50", "setting": "SCD-1", "result": "0.1 to 1", "unit": "µM"}]}
{"smiles": "O=C(CNc1ccnn(Cc2ccccc2)c1=O)N1CCC(Oc2ccccc2C(F)(F)F)CC1", "note": "[Example 48, 2-Benzyl-4-{2-oxo-2-[4-(2-trifluoromethyl-phenoxy)-piperidin-1-yl]-ethylamino}-2H-pyridazin-3-one]", "values": [{"measurement": "IC50", "setting": "SCD-1", "result": "1 to 10", "unit": "µM"}]}
{"smiles": "CC(C)n1nccc(NCC(=O)N2CCC(Oc3ccccc3C(F)(F)F)CC2)c1=O", "note": "[Example 49, 2-Isopropyl-4-{2-oxo-2-[4-(2-trifluoromethyl-phenoxy)-piperidin-1-yl]-ethylamino}-2H-pyridazin-3-one]", "values": [{"measurement": "melting point", "result": 180, "unit": "°C"}]}
{"smiles": "CN(Cc1ccc(Cl)c(Cl)c1)C1CCN(C(=O)CNc2ccnn(C)c2=O)CC1", "note": "[Example 28, 4-(2-{4-[(3,4-Dichloro-benzyl)-methyl-amino]-piperidin-1-yl}-2-oxo-ethylamino)-2-methyl-2H-pyridazin-3-one]", "values": [{"measurement": "melting point", "result": 155, "unit": "°C"}]}
{"smiles": "O=C(CNc1ccn[nH]c1=O)N1CCC(Oc2cc(F)c(F)cc2Br)CC1", "note": "[Example 43, 4-{2-[4-(2-Bromo-4,5-difluoro-phenoxy)-piperidin-1-yl]-2-oxo-ethylamino}-2H-pyridazin-3-one]", "values": [{"measurement": "IC50", "setting": "SCD-1", "result": "0.01 to 0.1", "unit": "µM"}]}
{"smiles": "O=C(CNc1ccn[nH]c1=O)N1CCC(Oc2cc(Br)ccc2Cl)CC1", "note": "[Example 42, 4-{2-[4-(5-Bromo-2-Chloro-phenoxy)-piperidin-1-yl]-2-oxo-ethylamino}-2H-pyridazin-3-one]", "values": [{"measurement": "IC50", "setting": "SCD-1", "result": "0.01 to 0.1", "unit": "µM"}]}
{"smiles": "Cn1nccc(NCC(=O)N2CC(COc3cc(C(F)(F)F)ccc3Cl)C2)c1=O", "note": "[Example 33, 4-{2-[3-(2-Chloro-5-trifluoromethyl-phenoxymethyl)-azetidin-1-yl]-2-oxo-ethylamino}-2-methyl-2H-pyridazin-3-one]", "values": [{"measurement": "melting point", "result": 174, "unit": "°C"}]}
{"smiles": "Cn1nccc(CCC(=O)N2CCC(Oc3cc(C(F)(F)F)ccc3Cl)CC2)c1=O", "note": "[Example 37, 4-{3-[4-(2-Chloro-5-trifluoromethyl-phenoxy)-piperidin-1-yl]-3-oxo-propyl}-2-methyl-2H-pyridazin-3-one]", "values": [{"measurement": "IC50", "setting": "SCD-1", "result": 0.3, "unit": "µM"}]}
{"smiles": "CC(=O)c1ccc(F)cc1OC1CCN(C(=O)COc2ccnn(C)c2=O)CC1", "note": "[Example 23, 4-{2-[4-(2-Acetyl-5-fluoro-phenoxy)-piperidin-1-yl]-2-oxo-ethoxy}-2-methyl-2H-pyridazin-3-one]", "values": [{"measurement": "melting point", "result": 192, "unit": "°C"}]}
{"smiles": "Cn1nccc(OCC(=O)N2CCC(Oc3ccc(F)cc3Cl)CC2)c1=O", "note": "[Example 22, 4-{2-[4-(2-Chloro-4-fluoro-phenoxy)-piperidin-1-yl]-2-oxo-ethoxy}-2-methyl-2H-pyridazin-3-one]", "values": [{"measurement": "melting point", "result": 135, "unit": "°C"}]}
{"smiles": "Cn1nccc(NCC(=O)N2CCN(C(=O)c3ccccc3C(F)(F)F)CC2)c1=O", "note": "[Example 30, 2-Methyl-4-{2-oxo-2-[4-(2-trifluoromethyl-benzoyl)-piperazin-1-yl]-ethylamino}-2H-pyridazin-3-one]", "values": [{"measurement": "melting point", "result": 170, "unit": "°C"}]}
{"smiles": "Cn1ncc(NCC(=O)N2CCC(Oc3ccccc3C(F)(F)F)CC2)cc1=O", "note": "[Example 19, 2-Methyl-5-{2-oxo-2-[4-(2-trifluoromethyl-phenoxy)-piperidin-1-yl]-ethylamino}-2H-pyridazin-3-one]", "values": [{"measurement": "melting point", "result": "245 to 260", "unit": "°C"}]}
{"smiles": "Cn1nccc(NCC(=O)N2CCC(Oc3cc(F)ccc3F)CC2)c1=O", "note": "[Example 13, 4-{2-[4-(2,5-Difluoro-phenoxy)-piperidin-1-yl]-2-oxo-ethylamino}-2-methyl-2H-pyridazin-3-one]", "values": [{"measurement": "melting point", "result": 160, "unit": "°C"}]}
{"smiles": "CC(C)CCCn1nccc(NCC(=O)N2CCC(Oc3cc(C(F)(F)F)ccc3Cl)CC2)c1=O", "note": "[Example 47, 4-{2-[4-(2-Chloro-5-trifluoromethyl-phenoxy)-piperidin-1-yl]-2-oxo-ethylamino}-2-(4-methyl-pentyl)-2H-pyridazin-3-one]", "values": [{"measurement": "IC50", "setting": "SCD-1", "result": "0.3 to 1", "unit": "µM"}]}
{"smiles": "O=C(CNc1ccn[nH]c1=O)N1CCC(Oc2cccc(C(F)(F)F)c2)CC1", "note": "[Example 44, 4-{2-[4-(3-trifluoromethyl-phenoxy)-piperidin-1-yl]-2-oxo-ethylamino}-2H-pyridazin-3-one]", "values": [{"measurement": "IC50", "setting": "SCD-1", "result": "0.1 to 1", "unit": "µM"}]}
{"smiles": "C[C@@H](Nc1ccnn(C)c1=O)C(=O)N1CCC(Oc2cc(C(F)(F)F)ccc2Cl)CC1", "note": "[Example 38, 4-{(R)-2-[4-(2-Chloro-5-trifluoromethyl-phenoxy)-piperidin-1-yl]-1-methyl-2-oxo-ethylamino}-2-methyl-2H-pyridazin-3-one]", "values": [{"measurement": "melting point", "result": 70, "unit": "°C"}]}
{"smiles": "CCCCn1nccc(NCC(=O)N2CCC(Oc3ccccc3Cl)CC2)c1=O", "note": "[Example 50, 2-Butyl-4-{2-[4-(2-chloro-phenoxy)-piperidin-1-yl]-2-oxo-ethylamino}-2H-pyridazin-3-one]", "values": [{"measurement": "melting point", "result": 82, "unit": "°C"}]}
{"smiles": "Cn1ncc(OCC(=O)N2CCC(Oc3ccc(Cl)cc3Cl)CC2)cc1=O", "note": "[Example 26, 5-{2-[4-(2,4-Dichloro-phenoxy)-piperidin-1-yl]-2-oxo-ethoxy}-2-methyl-2H-pyridazin-3-one]", "values": [{"measurement": "melting point", "result": 140, "unit": "°C"}]}
{"smiles": "Cn1nccc(NCC(=O)N2CCN(C(=O)c3cc(F)ccc3C(F)(F)F)CC2)c1=O", "note": "[Example 29, 4-{2-[4-(5-Fluoro-2-trifluoromethyl-benzoyl)-piperazin-1-yl]-2-oxo-ethylamino}-2-methyl-2H-pyridazin-3-one]", "values": [{"measurement": "melting point", "result": 210, "unit": "°C"}]}
{"smiles": "C[C@H](Nc1ccnn(C)c1=O)C(=O)N1CCC(Oc2cc(C(F)(F)F)ccc2Cl)CC1", "note": "[Example 39, 4-{(S)-2-[4-(2-Chloro-5-trifluoromethyl-phenoxy)-piperidin-1-yl]-1-methyl-2-oxo-ethylamino}-2-methyl-2H-pyridazin-3-one]", "values": [{"measurement": "melting point", "result": 70, "unit": "°C"}]}
{"smiles": "Cn1nccc(OCC(=O)N2CCC(Oc3ccccc3OC(F)(F)F)CC2)c1=O", "note": "[Example 21, 2-Methyl-4-{2-oxo-2-[4-(2-trifluoromethoxy-phenoxy)-piperidin-1-yl]-ethoxy}-2H-pyridazin-3-one]", "values": [{"measurement": "melting point", "result": 126, "unit": "°C"}]}
{"smiles": "CC#CCn1nccc(NCC(=O)N2CCC(Oc3cc(C(F)(F)F)ccc3Cl)CC2)c1=O", "note": "[Example 46, 2-But-2-ynyl-4-{2-[4-(2-chloro-5-trifluoromethyl-phenoxy)-piperidin-1-yl]-2-oxo-ethylamino}-2H-pyridazin-3-one]", "values": [{"measurement": "IC50", "setting": "SCD-1", "result": 1, "unit": "µM"}]}
{"smiles": "CCCCCCCCC1=C(CCCCCCCC(=O)O)C1", "note": "[Sterculic acid, reference compound]", "values": [{"measurement": "IC50", "setting": "SCD-1", "result": 0.3, "unit": "µM"}]}
{"smiles": "O=C(CNc1ccn[nH]c1=O)N1CCC(Oc2cc(Cl)ccc2Cl)CC1", "note": "[Example 41, 4-{2-[4-(2,5-dichloro-phenoxy)-piperidin-1-yl]-2-oxo-ethylamino}-2H-pyridazin-3-one]", "values": [{"measurement": "IC50", "setting": "SCD-1", "result": "0.01 to 0.1", "unit": "µM"}]}
{"smiles": "CN(CC(=O)N1CCC(Oc2ccccc2Cl)CC1)c1ccnn(C)c1=O", "note": "[Example 18, 4-({2-[4-(2-Chloro-phenoxy)-piperidin-1-yl]-2-oxo-ethyl}-methyl-amino)-2-methyl-2H-pyridazin-3-one]", "values": [{"measurement": "IC50", "setting": "SCD-1", "result": "3 to 10", "unit": "µM"}]}
{"smiles": "Cn1nccc(NCC(=O)N2CCC(Oc3ccccc3[N+](=O)[O-])CC2)c1=O", "note": "[Example 15, 2-Methyl-4-{2-[4-(2-nitro-phenoxy)-piperidin-1-yl]-2-oxo-ethylamino}-2H-pyridazin-3-one]", "values": [{"measurement": "melting point", "result": 160, "unit": "°C"}]}
